From US8916499B2, “Herbicidal compositions comprising 4-amino-3-chloro-5-fluoro-6-(4-chloro-2-fluoro-3-methoxyphenyl) pyridine-2-carboxylic acid or a derivative thereof and a protoporphyrinogen oxidase inhibitor” (Dow AgroSciences LLC, priority 2012, dated 2014)
“And” between values parts separate entries of the source, which are not always exact repeats. Equal entries are not always repeated.

Key:
[1] = test system: IPOHE; experiment: Pre-emergence soil-applied weed control, greenhouse (Example IV); format: in vivo, Ipomoea hederacea (L.) Jacq.
Excerpt: (§1) Seeds or nutlets of the desired test plant species were planted in a soil matrix prepared by mixing a loam soil (32 percent silt, 23 percent clay, and 45 percent sand, with a pH of about 6.5 and an organic matter content of about 1.9 percent) and calcareous grit in an 80 to 20 ratio. The soil matrix was contained in plastic pots with a volume of 1 quart and a surface area of 83.6 square centimeters (cm^2).
(§2) Treatments consisted of the benzyl ester of 4-amino-3-chloro-5-fluoro-6-(4-chloro-2-fluoro-3-methoxy-phenyl)pyridine-2-carboxylic acid (compound A) formulated as an SC (suspension concentrate) and various herbicidal components alone and in combination. Forms of compound A were applied on an acid equivalent basis.
(§3) Other herbicidal components were applied on an acid equivalent or active ingredient basis and included the protoporphyrinogen oxidase (PPO)-inhibiting herbicides, flumioxazin formulated as Payload® and oxadiazon formulated as Ronstar® 50W.
(§4) Treatment requirements were calculated based upon the rates being tested, the concentration of active ingredient or acid equivalent in the formulation, and a 12 mL application volume at a rate of 187 L/ha.
(§5) For treatments comprised of formulated compounds, measured amounts of compounds were placed individually in 25 mL glass vials and diluted in a volume of 1.25% (v/v) Agri-Dex® crop oil concentrate (COC) to obtain 12× stock solutions. […] Application solutions were prepared by adding an appropriate amount of each stock solution (e.g., 1 mL) and diluted to the appropriate final concentrations with the addition of 10 mL of an aqueous mixture of 1.25% (v/v) COC so that the final spray solutions contained 1.25% (v/v) COC.
(§6) All stock solutions and applications solutions were visually inspected for compound compatibility prior to application. Spray solutions were applied to the soil with an overhead Mandel track sprayer equipped with a 8002E nozzles calibrated to deliver 187 L/ha over an application area of 0.503 m^2 at a spray height of 18 inches (46 cm) above average pot height. Control pots were sprayed in the same manner with the solvent blank.
(§7) The treated and control pots were placed in a greenhouse and top watered as needed. When required to ensure good germination and healthy plants, a fungicide treatment and/or other chemical or physical treatment was applied. The pots were maintained in a greenhouse with an approximate 14 hr photoperiod which was maintained at about 29° C. during the day and 26° C. during the night. Nutrients (Peters® Excel 15-5-15 5-Ca 2-Mg) were applied in the irrigation solution as needed and water was added on a regular basis. Supplemental lighting was provided with overhead metal halide 1000-Watt lamps as necessary. After approximately 4 weeks, the condition of the test plants as compared with that of the untreated plants was determined visually and scored on a scale of 0 to 100 percent where 0 corresponds to no injury or growth inhibition and 100 corresponds to complete kill.
Colby's equation was used to determine the herbicidal effects expected from the mixtures (Colby, S. R. 1967. Calculation of the synergistic and antagonistic response of herbicide combinations. Weeds 15:20-22.).
The following equation was used to calculate the expected activity of mixtures containing two active ingredients, A and B: Expected=A+B−(A×B/100)

[2] = test system: SETVI; experiment: as above; format: in vivo, Setaria viridis (L.) Beauv.
Excerpt: as §1, §2, §3, §4
as §5, with “COC. […]” for “COC.”
The treated and control pots were placed in a greenhouse and top watered as needed. […] After approximately 4 weeks, the condition of the test plants as compared with that of the untreated plants was determined visually and scored on a scale of 0 to 100 percent where 0 corresponds to no injury or growth inhibition and 100 corresponds to complete kill. […]

[3] = test system: LEFCH; experiment: Postemergence foliar-applied weed control, direct seeded rice, greenhouse (Example I); format: in vivo, Leptochloa chinensis (L.) Nees; details: g ae/ha Compound A Benzyl Ester+g ai/ha saflufenacil: r26 8.75+0, r27 17.5+0, r28 0+5, r29 0+10, r30 8.75+5, r31 17.5+5, r32 8.75+10, r33 17.5+10
[4] = test system: SCPMA; experiment: In-water applied weed control, transplanted paddy rice, greenhouse (Example II); format: in vivo
[5] = test system: XANST; experiment: Pre-emergence soil-applied weed control, greenhouse (Example IV); format: in vivo, Xanthium strumarium L.
Excerpt: as §1, §2, §3, §4, §5, §6
as §7, with “Nutrients (Peters® Excel 15-5-15 5-Ca 2-Mg) were applied in the irrigation solution as needed and water was added on a regular basis. Supplemental lighting was provided with overhead metal halide 1000-Watt lamps as necessary.” left out, “kill. […]” for “kill.”

`COc1c(Cl)ccc(-c2nc(C(=O)OCc3ccccc3)c(Cl)c(N)c2F)c1F` [Compound A Benzyl Ester, benzyl ester of 4-amino-3-chloro-5-fluoro-6-(4-chloro-2-fluoro-3-methoxy-phenyl)pyridine-2-carboxylic acid] was tested, and the “Visual Weed Control (%) - 32 DAA IPOHE Obs” value ([1]; 8 g ae/ha alone) was 65%, the “Visual Weed Control (%) - 28 DAA IPOHE Obs” value ([1]; 16 g ae/ha alone) was 13% and the “Visual Weed Control (%) - 32 DAA IPOHE Obs” value ([1]; 16 g ae/ha alone) was 83%. For the same compound, the “Visual Weed Control (%) - 28 DAA IPOHE Obs” value ([1]; 32 g ae/ha alone) was 23%, the “Visual Weed Control (%) - 28 DAA SETVI Obs” value ([2]; 16 g ae/ha alone) was 10% and the “Visual Weed Control (%) - 28 DAA SETVI Obs” value ([2]; 32 g ae/ha alone) was 10%. For the same compound, the “Visual Weed Control (%) - 20 DAA LEFCH Obs” value [3] was 30% and 50%, the “Visual Weed Control (%) - 21 DAA SCPMA Obs” value ([4]; 48 g ae/ha alone) was 0% and the “Visual Weed Control (%) - 21 DAA SCPMA Obs” value ([4]; 96 g ae/ha alone) was 0%. The “Visual Weed Control (%) - 29 DAA XANST Obs” value ([5]; 16 g ae/ha alone) was 0% and the “Visual Weed Control (%) - 29 DAA XANST Obs” value ([5]; 32 g ae/ha alone) was 5%.
